We go through 37 compounds from ChEMBL document CHEMBL4483862, “Open-source discovery of chemical leads for next-generation chemoprotective antimalarials” (2018).

The test relates to Plasmodium berghei. Description: Luciferase/luciferin-expressing antifolate-resistant parasites were used to infect a culture of HepG2 cells that were pre-incubated with compounds. Infected hepatocytes emit light due to the luciferase reaction. Assay results are presented as the percent inhibition of light emission compared to control. […]. Format: functional. The note with it: sporozoite; for IC90: read-out: LUCIFERASE INFECTION ASSAY - IC90.

Where [1] appears, read: read-out: LUCIFERASE INFECTION ASSAY - IC50.

By IC50 is commonly meant the concentration that gives 50% inhibition. By IC90 is commonly meant the concentration needed for an effect of 90%. In the case of `CCCN1C/C(=C/c2csnn2)C(=O)/C(=C/c2csnn2)C1`, the IC90 was over 10 µM. For the same compound, the IC50 (HEPG2TOX_HILL_SLOPE 13.3, HEPG2TOX_R_SQUARED 0.713, read-out: LUCIFERASE INFECTION ASSAY - IC50) is over 10 µM.

For `Cc1c(OCc2ccc(Br)cc2)ccc2c1OC(C)(C)C=C2`, the 90% effect concentration (IC90) was 0.652 µM. Moreover, the IC50 under setting [1] was found to be 0.199 µM.

For the compound `CC(C)OCc1cccc(NC(=O)Nc2cccc(Cl)c2)c1`, the IC90 is 1.8 µM. In addition, the 50% inhibitory concentration (IC50) (HEPG2TOX_HILL_SLOPE 8.19, HEPG2TOX_R_SQUARED 0.0219, PBLUC_HILL_SLOPE 262, PBLUC_R_SQUARED 0.512, read-out: LUCIFERASE INFECTION ASSAY - IC50) was found to be 1.78 µM.

On to `COC(=O)c1sccc1Oc1ccc(C(F)(F)F)cc1NC(=S)Nc1cc(Cl)cc(Cl)c1`, for which the IC90 was over 6.33 µM. For the same compound, the half-inhibitory concentration (IC50) under setting [1] was over 6.33 µM.

For the compound `COc1cc(/C=C/c2ccc3ccccc3n2)ccc1OCC(=O)Nc1cccc(C(F)(F)F)c1`, the IC90 is over 10 µM. Further, the concentration for half-maximal inhibition (IC50) (PBLUC_HILL_SLOPE 1.81, PBLUC_R_SQUARED 0.402, read-out: LUCIFERASE INFECTION ASSAY - IC50) came out at 8.14 µM.

Consider `Cc1cc(S(=O)(=O)Oc2ccccc2C(N)=O)ccc1-n1cnnn1`, for which the 90% effect concentration (IC90) is over 10 µM. Also, the IC50 (PBLUC_HILL_SLOPE 12.6, PBLUC_R_SQUARED 0.0652, read-out: LUCIFERASE INFECTION ASSAY - IC50) turned out to be 9.07 µM.

For `CN(C)c1cccc(Nc2nccn3c(-c4ccc5c(c4)OCO5)cnc23)c1`, the IC90 amounted to 2.84 µM. Further, the IC50 under setting [1] turned out to be 0.365 µM.

In the case of `CCC(C)c1ccc(-c2cc(C(=O)OCC(=O)N3c4ccccc4NC(=O)C3(C)C)c3ccccc3n2)cc1` (centres undefined), the IC90 is over 10 µM. In addition, the IC50 under setting [1] came to 8.86 µM.

Take `COc1cc(NC(=O)N2Cc3cnc(Nc4ccc(OCc5ccccc5)cc4)nc3C2)cc(OC)c1OC`: the IC90 is over 6.25 µM. In addition, the 50% inhibitory concentration (IC50) under setting [1] was over 6.25 µM.

For the compound `Cc1cc(=O)oc2cc(Oc3nc(CN4CCOCC4)nc4sc5c(c34)CCCC5)c(Cl)cc12`, the concentration for an effect of 90% (IC90) is over 10 µM. Also, for the setting “HEPG2TOX_HILL_SLOPE 1.03, HEPG2TOX_R_SQUARED 0.724, read-out: LUCIFERASE INFECTION ASSAY - IC50”, the IC50 was over 10 µM.

`O=C(NCCO)c1cccc(-c2ccc3ncc(-c4cccc(Cl)c4)n3n2)c1`: the 90% effect concentration (IC90) worked out at 3.56 µM. Moreover, the half-inhibitory concentration (IC50) (HEPG2TOX_HILL_SLOPE 1.24, HEPG2TOX_R_SQUARED 0.781, PBLUC_HILL_SLOPE 15.2, PBLUC_R_SQUARED 0.219, read-out: LUCIFERASE INFECTION ASSAY - IC50) was found to be 3.08 µM.

For `CN(C1CCCCC1)S(=O)(=O)c1ccc(NC(=S)NC(=O)c2ccco2)cc1`, the IC90 is over 10 µM. Further, the IC50 (FFLUC_HILL_SLOPE 2.51, FFLUC_R_SQUARED 0.131, read-out: LUCIFERASE INFECTION ASSAY - IC50) is over 10 µM.

For the compound `O=C(CCN1CCN(c2ccccc2)CC1)NNC(=O)c1ccc(C(F)(F)F)cn1`, the IC90 amounted to 7.86 µM. For the same compound, under “HEPG2TOX_HILL_SLOPE 7.92, HEPG2TOX_R_SQUARED 0.92, PBLUC_HILL_SLOPE 7.4, PBLUC_R_SQUARED 0.199, read-out: LUCIFERASE INFECTION ASSAY - IC50”, the IC50 came to 5.84 µM.

Take `CCOC(=O)c1c(-c2ccc(OC)cc2)csc1NC(=O)CSc1nc(C)nc2sc3c(c12)CCC3`: the concentration for an effect of 90% (IC90) is over 10 µM. The IC50 (FFLUC_HILL_SLOPE 0.459, FFLUC_R_SQUARED 0.138, read-out: LUCIFERASE INFECTION ASSAY - IC50) was over 10 µM.

Regarding `O=C(N/N=C/c1cc(Cl)cc(Cl)c1O)N/N=C/c1cc(Cl)cc(Cl)c1O`, the IC90 is over 7.57 µM. Further, under setting [1], the IC50 is over 7.57 µM.

Consider `CC(C)c1ccc(NC(=O)N2CCc3nc(NCc4cccc(Oc5ccccc5)c4)ncc3C2)cc1`, for which the IC90 is over 6.69 µM. For the same compound, the 50% inhibitory concentration (IC50) under setting [1] was over 6.69 µM.

In the case of `CN(C)C(=O)c1ccc(-c2cc3c(Nc4cccc(C(F)(F)F)c4)nccc3n2C)cc1`, the IC90 turned out to be 6.54 µM. Also, the IC50 (PBLUC_HILL_SLOPE 4.75, PBLUC_R_SQUARED 0.5, read-out: LUCIFERASE INFECTION ASSAY - IC50) came out at 4.12 µM.

Take `COc1cc(OC)c(C(=O)/C=C/c2cccnc2)cc1Cl`: the IC90 worked out at 3.76 µM. In addition, the half-inhibitory concentration (IC50) under setting [1] amounted to 3.3 µM.

For the compound `O=C(Nc1cccc(Cl)c1)Nc1ccc2nc(-c3ccc(F)c(Cl)c3)nn2c1`, the IC90 is 7.37 µM. In addition, the IC50 (HEPG2TOX_HILL_SLOPE 11.5, HEPG2TOX_R_SQUARED 0.414, PBLUC_HILL_SLOPE 109, PBLUC_R_SQUARED 0.131, read-out: LUCIFERASE INFECTION ASSAY - IC50) turned out to be 7.23 µM.

On to `CCOc1ccc(-c2n[nH]c(C)c2Oc2ccccc2Br)c(O)c1`, for which the IC90 is over 8.48 µM. Further, where the note is “FFLUC_HILL_SLOPE 1.83, FFLUC_R_SQUARED 0.626, read-out: LUCIFERASE INFECTION ASSAY - IC50”, the 50% inhibitory concentration (IC50) was over 8.48 µM.

Take `COc1cc(-c2ccc3ncc(-c4cccc(Cl)c4)n3n2)cc(OC)c1OC`: the IC90 turned out to be 5.69 µM. Further, the IC50 (HEPG2TOX_HILL_SLOPE 9.46, HEPG2TOX_R_SQUARED 0.786, PBLUC_HILL_SLOPE 7.92, PBLUC_R_SQUARED 0.391, read-out: LUCIFERASE INFECTION ASSAY - IC50) is 4.31 µM.

Regarding `CC12C/C(=C\c3ccccc3)C(O)CC1CCC1C2CCC2(C)C1CC[C@]2(C)O` (some centres undefined), the concentration for an effect of 90% (IC90) is over 8.36 µM. Under “FFLUC_HILL_SLOPE 0.541, FFLUC_R_SQUARED 0.353, PBLUC_HILL_SLOPE 12.3, PBLUC_R_SQUARED 0.0329, read-out: LUCIFERASE INFECTION ASSAY - IC50”, the IC50 is over 8.36 µM.

Consider `CC(Cn1cccn1)NC(=O)C(=O)Nc1ccccc1SC1CCCC1` (centres undefined), for which the IC90 was 5.88 µM. The IC50 (PBLUC_HILL_SLOPE 6.42, PBLUC_R_SQUARED 0.787, read-out: LUCIFERASE INFECTION ASSAY - IC50) came to 4.18 µM.

Take `CC(C)(C)c1ccc(OS(=O)(=O)c2ccc(Oc3c(Cl)cccc3[N+](=O)[O-])cc2)cc1`: the IC90 was over 7.14 µM. In addition, the IC50 under setting [1] was over 7.14 µM.

As for `CNc1nc2cnc(Nc3cccc(C(C)C)c3)cc2n1Cc1ccco1`, the IC90 is over 10 µM. For the same compound, under setting [1], the 50% inhibitory concentration (IC50) was over 10 µM.

Take `O=C1C(=O)N(Cc2ccc(Cl)cc2)c2c1cccc2C(F)(F)F`: the IC90 came out at 3.39 µM. The IC50 (FFLUC_HILL_SLOPE 2.39, FFLUC_R_SQUARED 0.89, HEPG2TOX_HILL_SLOPE 3.88, HEPG2TOX_R_SQUARED 0.975, PBLUC_HILL_SLOPE 2.88, PBLUC_R_SQUARED 0.708, read-out: LUCIFERASE INFECTION ASSAY - IC50) stood at 1.58 µM.

Regarding `COc1cccc(NC(=O)c2cc(C(C)(C)C)n(-c3ccccc3)c2C)c1`, the IC90 was over 9.1 µM. In addition, the IC50 (PBLUC_HILL_SLOPE 0.223, PBLUC_R_SQUARED 0.111, read-out: LUCIFERASE INFECTION ASSAY - IC50) was over 9.1 µM.

With `CCC(=O)Nc1nc(C)c(-c2csc(Nc3ccc(N(C)C)cc3)n2)s1`, the IC90 is over 8.52 µM. Also, the half-inhibitory concentration (IC50) (FFLUC_HILL_SLOPE 5.2, FFLUC_R_SQUARED 0.393, read-out: LUCIFERASE INFECTION ASSAY - IC50) was over 8.52 µM.

For `Cc1ccccc1-c1cn2c(-c3ccc4ncccc4c3)cnc2cn1`, the IC90 is 0.015 µM. The IC50 (HEPG2TOX_HILL_SLOPE 0.237, HEPG2TOX_R_SQUARED 0.401, PBLUC_HILL_SLOPE 15.7, PBLUC_R_SQUARED 0.693, read-out: LUCIFERASE INFECTION ASSAY - IC50) came out at 0.0131 µM.

On to `CC(=O)c1cccc(-c2ccc3ncc(-c4cccc(C(F)(F)F)c4)n3n2)c1`, for which the IC90 came out at 0.407 µM. Besides, the concentration for half-maximal inhibition (IC50) (HEPG2TOX_HILL_SLOPE 2.43, HEPG2TOX_R_SQUARED 0.95, PBLUC_HILL_SLOPE 15.4, PBLUC_R_SQUARED 0.713, read-out: LUCIFERASE INFECTION ASSAY - IC50) turned out to be 0.353 µM.

Consider `CC1CN(S(=O)(=O)c2cc(Cl)c(Oc3ccc([N+](=O)[O-])cc3Cl)c(Cl)c2)CC(C)O1` (centres undefined), for which the concentration for an effect of 90% (IC90) is over 6.66 µM. For the same compound, the IC50 under setting [1] is over 6.66 µM.

On to `Cc1nc(N2CCc3ccccc32)c2c3c(sc2n1)CCC3`, for which the IC90 came out at 4.64 µM. For the same compound, the IC50 (HEPG2TOX_HILL_SLOPE 9.23, HEPG2TOX_R_SQUARED 0.902, PBLUC_HILL_SLOPE 9.42, PBLUC_R_SQUARED 0.51, read-out: LUCIFERASE INFECTION ASSAY - IC50) is 3.68 µM.

For the compound `CC(=O)N1CCc2cc(NC(=O)c3cc(C)n(C4CCCCC4)c3C)ccc21`, the IC90 stood at 0.349 µM. Moreover, the IC50 (PBLUC_HILL_SLOPE 2.13, PBLUC_R_SQUARED 0.772, read-out: LUCIFERASE INFECTION ASSAY - IC50) stood at 0.125 µM.

Consider `COc1ccc(N/N=C(\C=N\O)C(=O)c2ccccc2)cc1`, for which the IC90 worked out at 5.58 µM. Besides, for the setting “HEPG2TOX_HILL_SLOPE 1.74, HEPG2TOX_R_SQUARED 0.984, PBLUC_HILL_SLOPE 2.38, PBLUC_R_SQUARED 0.768, read-out: LUCIFERASE INFECTION ASSAY - IC50”, the IC50 stood at 2.22 µM.

`COC(=O)C1C(c2ccc(N(C)C)cc2)C(C(=O)OC)S(=O)(=O)C(=NNc2ccc(OC)cc2[N+](=O)[O-])S1(=O)=O` (centres undefined): the IC90 is over 10 µM. Further, the IC50 (FFLUC_HILL_SLOPE 2.66, FFLUC_R_SQUARED 0.775, read-out: LUCIFERASE INFECTION ASSAY - IC50) is over 10 µM.

For `CCCCCCCCCCOCC[N+]1(C)CCOCC1`, the IC90 was found to be 7.47 µM. Further, under “HEPG2TOX_HILL_SLOPE 3.29, HEPG2TOX_R_SQUARED 0.591, PBLUC_HILL_SLOPE 1.92, PBLUC_R_SQUARED 0.78, read-out: LUCIFERASE INFECTION ASSAY - IC50”, the IC50 was 2.38 µM.

For `Cc1ccc(-c2csc3[nH]c(CNC(C)c4ccc5c(c4)CCCC5)nc(=O)c23)s1` (centres undefined), the IC90 was over 10 µM. Besides, under “FFLUC_HILL_SLOPE 13.5, FFLUC_R_SQUARED 0.414, HEPG2TOX_HILL_SLOPE 0.395, HEPG2TOX_R_SQUARED 0.365, read-out: LUCIFERASE INFECTION ASSAY - IC50”, the IC50 was over 10 µM.
